Test results reported in publication PMC6200399 (ACS chemical biology, 2018).
pEC50: −log10 of the molar value. Several values for one entry are separate records, joined by “and”; a condition that tells them apart may be missing. Equal values may be shown once.

Columns and labels:
RhlR [1] = molecular target: T1, RhlR (Pseudomonas aeruginosa, UniProt P54292); experiment: E. coli RhlR reporter agonism assay; format: cell-based, P. aeruginosa; settings: for % activation: compounds screened at 10 μM, RhlR activity relative to BHL at 1 mM, E. coli reporter; for pEC50: read-out: EC50 (RhlR agonism, E. coli), E. coli RhlR reporter, dose-response; for fold more potent than BHL (RhlR agonism potency): EC50 relative to BHL
RhlR [2] = molecular target: T1, RhlR; experiment: P. aeruginosa PAO-JP2; format: cell-based; settings: read-out: EC50 (RhlR agonism, P. aeruginosa); P. aeruginosa PAO-JP2 prhlI-LVAgfp; in the presence of 100 nM OdDHL
LasR = LasR (Pseudomonas aeruginosa, UniProt P25084); experiment: E. coli LasR reporter antagonism assay; format: cell-based, P. aeruginosa; settings: compounds at 1 mM, versus 2 nM OdDHL (Table S3)
RhlR [3] = molecular target: T1, RhlR; experiment: E. coli RhlR reporter competitive antagonism assay versus 10 μM BHL; format: cell-based, P. aeruginosa; settings: compounds screened at 1 mM in the presence of 10 μM BHL, relative to activation of 10 μM BHL alone

T1 sequence (P54292 whole entry): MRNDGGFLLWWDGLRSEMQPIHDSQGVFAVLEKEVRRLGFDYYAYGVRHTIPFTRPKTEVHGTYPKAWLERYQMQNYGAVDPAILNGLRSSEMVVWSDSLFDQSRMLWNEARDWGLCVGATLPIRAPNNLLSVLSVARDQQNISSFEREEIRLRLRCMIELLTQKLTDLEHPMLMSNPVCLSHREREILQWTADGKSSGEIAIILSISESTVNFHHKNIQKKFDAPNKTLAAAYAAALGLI
LasR, sequence (P25084 whole entry): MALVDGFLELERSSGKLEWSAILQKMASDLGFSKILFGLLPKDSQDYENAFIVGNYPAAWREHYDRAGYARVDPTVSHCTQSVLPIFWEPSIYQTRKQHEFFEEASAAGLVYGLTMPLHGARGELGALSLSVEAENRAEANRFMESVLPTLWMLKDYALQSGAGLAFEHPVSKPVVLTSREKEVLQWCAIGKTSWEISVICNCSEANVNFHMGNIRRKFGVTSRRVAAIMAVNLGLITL

Compound	% activation (RhlR [1])	pEC50 (RhlR [1])	pEC50 (RhlR [2])	also measured
pentenyl HL [Compound 2, reference compound]	54%	5.10		
CCC(C)C(=O)NC1CCOC1=O (stereo not shown) [Compound 8, 2-methylbutanoyl HL]	55%	5.11		
CCCC(=O)NC1CCCC1=O (stereo not shown) [Compound 28]	35%	4.56	4.84	fold less active than BHL (RhlR agonism potency) (RhlR [1]; E. coli reporter EC50 relative to BHL, p < 0.05): under 3 fold
CC(C)CC(=O)N[C@H]1CCOC1=O [Compound 7, isovaleryl HL]	86%	5.99	5.85	fold more potent than BHL (RhlR agonism potency) (RhlR [1]): ~10 fold; LasR antagonism (% inhibition) (LasR): > 70%
O=C(NC1CCOC1=O)C1CCC1 (stereo not shown) [Compound 17, cyclobutanoyl HL]	79%	5.75	5.85	fold more potent than BHL (RhlR agonism potency) (RhlR [1]): ~10 fold; LasR antagonism (% inhibition) (LasR): > 70%
Butenyl HL [Compound 14]		5.16		
CCCC(=O)N[C@H]1CCOC1=O [Compound 1, N-butanoyl-L-homoserine lactone, reference compound]	51%			pEC50 (RhlR [1]; listed as 1 (BHL)): 5.05; pEC50 (RhlR [1]; listed as BHL): ~5.00 and ~5.05; LasR antagonism (% inhibition) (LasR): antagonize
propyl HL [Compound 4]	25%			
CCCC(=O)NC1CCOC1 (stereo not shown) [Compound 30]	0%			
1-methyl-cyclopropanoyl HL [Compound 20]				% inhibition (RhlR [3]): 24%
CCCC(=O)N[C@@H]1CCOC1=O [Compound 25, D-BHL]	2%			RhlR agonism at 1 mM (RhlR [1]; compound at 1 mM, E. coli reporter (Table S2)): marginal activity; % inhibition (RhlR [3]): 11%
CCCC(=O)N[C@H]1CCNC1=O [Compound 27]	1%			
cyclopropyl HL [Compound 18]	32%			
cyclopentyl HL [Compound 3, reference compound]	76%	5.80	5.91	
CCCC(=O)NC1CCSC1=O (stereo not shown) [Compound 26]	71%	5.31	5.42	
